Like-named read-outs stand apart in the source and are kept apart here.
Columns and labels:
[1] = Thermodynamic stability constants of Sr^2+ complexes by pH-potentiometry; type: binding; settings: I = 0.1M KCl; for pSr (−log [M^2+]free): [M^2+] = 10^−6M, [L] = 10^−5M, pH 7.4; for log K′Sr (conditional stability constant): pH 7.4, 25° C., calculated from protonation and stability constants
Description: (§1) Potentiometric measurements were carried out using a titrator equipped with a combination electrode and an exchange unit with an automatic burette (10 mL). The titration vessel was fitted with a removable glass cell (˜70 mL) and was thermostated at 25° C. using a circulating water bath. CO2 was excluded from the vessel prior to and during the titrations using a small positive pressure of Ar that was passed through a solution of 30 wt % KOH. Carbonate-free KOH (˜0.1 M) was prepared by dissolving KOH pellets (semiconductor grade, 99.99% trace metals basis) in freshly boiled water (≥18 MΩ-cm) and was standardized by potentiometric titration against potassium hydrogen phthalate. Hydrochloric acid (0.1 M) was standardized against freshly prepared KOH. Titration solutions were maintained at a constant ionic strength of 0.1 M using KCl (≥99.5%) and were equilibrated for 15 minutes prior to the addition of titrant. Before every titration, the electrode was calibrated in terms of hydrogen ion concentration by titrating a solution of standardized HCl (5 mM) containing supporting electrolyte (95 mM) with standardized KOH (2 mL). Data within the pH ranges of 2.5-3.2 and 10.8-11.2 were analyzed using software to obtain the standard electrode potential (E0) and slope factor. Owing to the sharp rise in pH at the titration endpoint (pH 3.2-10.8), data obtained in this region are subject to significant error and were therefore excluded from the calibration analysis. A pKw value of 13.78 was taken from the literature (Baes, C. F.; Mesmer, R. E. The Hydrolysis of Cations; Wiley: New York, 1976).
(§2) ICP standards of calcium, strontium, and barium in dilute HNO3 were employed in the titrations. The exact amount of HNO3 was determined by potentiometric titration of each metal solution (1 mL), diluted to a known volume with H2O, with standardized KOH to pH ˜7; under these conditions, no precipitation of metal hydroxide species was observed. The data were analyzed using a Gran plot (Gran, G. Analyst 1952, 77, 661-671). Stability constants were measured for the alkaline earth complexes of macropa^2− and macropaquin^2− by adding standardized KOH to a solution (20 mL) containing ligand (0.02 mmol), metal (0.02 mmol), 1 M KCl (1.9 mmol), and a portion of 0.1 M HCl sufficient to bring the total acid content (HCl+HNO3) to 0.1 mmol. The titration method employed either a 0.1 mV/min or 0.2 mV/min drift limit with a maximum wait time of 300 seconds between addition of base and measurement. […] Data points (˜30-90) obtained over the pH ranges of 2.5-10.5 (Ba-macropa), 2.8-10.5 (Sr-macropa), 4.0-10.5 (Ca-macropa), 2.7-11.3 (Ba-macropaquin), and 4.0-11.3 (Sr- and Ca-macropaquin) were included in the refinements. These pH ranges reflect the portion of the titration curves in which metal binding is occurring. Using the protonation constants measured for each ligand, the stability constants (Equations 2-4, below) were calculated from the average of at least 3 independent titrations using appropriate software. Proton concentration was admitted as a refineable parameter. Ligand (L) concentration was taken as the averaged value obtained from the refinements of ligand-only titrations. The errors given for the stability constants correspond to one standard deviation.
(§3) The alkaline earth stability constants for macroquin-SO3^4− were determined using a system in which each ligand titration was paired with a ligand-metal titration. These pairwise titrations permitted the ligand concentration for the metal-ligand titrations to be known with reasonable certainty from the refinement of the ligand-only titrations. Immediately following a titration of the free ligand with HCl, metal ion (0.013 mmol) was added and the solution was equilibrated under Ar for 15 minutes before the addition of standardized KOH. The same titration method was employed as described above for macropa^2− and macropaquin^2−. […]

[2] = cited from earlier work
[3] = cited from earlier work; remark: listed apart in the source
[4] = Thermodynamic stability constants of Ba^2+ complexes by pH-potentiometry; type: binding; settings: for pBa (−log [M^2+]free): [M^2+] = 10^−6M, [L] = 10^−5M; for pBa (−log [M^2+]free) / log KBaH2L / log KBaHL / log KBaL / major species present at pH 7.4 in the presence of Ba^2+: 25° C.; for pBa (−log [M^2+]free) / log K′Ba (conditional stability constant) / log KBaH2L / log KBaHL / log KBaL: I = 0.1M KCl; for log K′Ba (conditional stability constant): pH 7.4, 25° C., calculated from protonation and stability constants; for log KBaH2L / log KBaHL / log KBaL: pH-potentiometry; for major species present at pH 7.4 in the presence of Ba^2+: speciation, [Ba^2+]tot=[L]tot=1.0 mM, I=0.1 M KCl
Description: Potentiometric measurements were carried out using a titrator equipped with a combination electrode and an exchange unit with an automatic burette (10 mL). The titration vessel was fitted with a removable glass cell (˜70 mL) and was thermostated at 25° C. using a circulating water bath. CO2 was excluded from the vessel prior to and during the titrations using a small positive pressure of Ar that was passed through a solution of 30 wt % KOH. […] Hydrochloric acid (0.1 M) was standardized against freshly prepared KOH. […] Before every titration, the electrode was calibrated in terms of hydrogen ion concentration by titrating a solution of standardized HCl (5 mM) containing supporting electrolyte (95 mM) with standardized KOH (2 mL).
ICP standards of calcium, strontium, and barium in dilute HNO3 were employed in the titrations. […] Stability constants were measured for the alkaline earth complexes of macropa^2− and macropaquin^2− by adding standardized KOH to a solution (20 mL) containing ligand (0.02 mmol), metal (0.02 mmol), 1 M KCl (1.9 mmol), and a portion of 0.1 M HCl sufficient to bring the total acid content (HCl+HNO3) to 0.1 mmol. The titration method employed either a 0.1 mV/min or 0.2 mV/min drift limit with a maximum wait time of 300 seconds between addition of base and measurement. […] These pH ranges reflect the portion of the titration curves in which metal binding is occurring. Using the protonation constants measured for each ligand, the stability constants (Equations 2-4, below) were calculated from the average of at least 3 independent titrations using appropriate software. Proton concentration was admitted as a refineable parameter. […] The errors given for the stability constants correspond to one standard deviation.
The alkaline earth stability constants for macroquin-SO3^4− were determined using a system in which each ligand titration was paired with a ligand-metal titration. These pairwise titrations permitted the ligand concentration for the metal-ligand titrations to be known with reasonable certainty from the refinement of the ligand-only titrations. […] The same titration method was employed as described above for macropa^2− and macropaquin^2−. […] Stability constants were calculated as described above.
Log conditional constants (log K′) of the alkaline earth complexes at pH 7.4 were calculated using the experimentally determined protonation and stability constants. These constants are expressed by the following equation:
In the above equation, [(ML)′]=[ML]+[MHL]+[MH2L], and [HnL]=[L], [HL], [H2L] . . . [HnL].

[5] = Thermodynamic stability constants of Ca^2+ complexes by pH-potentiometry; type: binding; settings: I = 0.1M KCl; for pCa (−log [M^2+]free): [M^2+] = 10^−6M, [L] = 10^−5M, pH 7.4; for pCa (−log [M^2+]free) / log KCaL / log KCaHL: 25° C.; for log K′Ca (conditional stability constant): pH 7.4, 25° C., calculated from protonation and stability constants; for log KCaL / log KCaHL: pH-potentiometry
Description: as §1, §2, §3

[6] = literature values, cited from earlier work; for log Ka1 / log Ka2 / log Ka3 / log Ka4: I = 0.1M KCl (footnotes b, c, d)
[7] = literature values (footnotes b, c)
[8] = bracketed literature value, I = 0.1M KNO3 (footnote e)

Structure (SMILES) | pSr (−log [M^2+]free) ([1]; 25° C.) | log K′Sr (conditional stability constant) [1] | pBa (−log [M^2+]free) ([4]; pH 7.4) | log K′Ba (conditional stability constant) [4] | pCa (−log [M^2+]free) [5] | log K′Ca (conditional stability constant) [5] | log Ka1 [6] | log Ka2 [6] | log Ka3 [6] | log Ka4 [6] | log KSrHL ([1]; pH-potentiometry, 25° C.) | log KSrL ([1]; pH-potentiometry, 25° C.) | log KBaH2L [4] | log KBaHL [4] | log KBaL [4] | log KCaL [5] | major species present at pH 7.4 in the presence of Ba^2+ [4] | log KCaHL [5] | further results
O=C(O)CN1CCN(CC(=O)O)CCN(CC(=O)O)CCN(CC(=O)O)CC1 [DOTA, reference compound] | 9.30 | 8.35 | 6.76 | 5.72 | 11.29 | 10.34 | 11.14 | 9.69 | 4.85 | 3.95 |  |  |  |  |  |  |  |  | log KSrHL [2, 7]: 4.52; log KCaHL [3, 7]: 3.60
O=C(O)c1cccc(CN2CCOCCOCCN(Cc3cccc(C(=O)O)n3)CCOCCOCC2)n1 [macropa, 6,6-((1,4,10,13-tetraoxa-7,16-diazacyclooctadecane-7,16-diyl)bis(methylene))dipicolinic acid] | 10.02 | 9.07 | 11.69 | 10.74 | 6.54 | 5.42 | (7.41)^d | (6.85) | (3.32) | (2.36) | 3.35(8) | 9.442(4) | 2.49(7) | 3.76(2) | 11.11 | 5.79(1) |  |  | log KSrHL [2, 8]: [4.16]; log KSrL [2, 8]: [9.57]; log KCaL [3, 8]: [5.25]^e; log KBaL lower than that for DOTA by [4]: 0.64 log units; Ba^2+ bound by ligand ([4]; pH 4.0, speciation): 90%; Ba^2+ complexed by ligand ([4]; pH 5.1, speciation): 99%; log K′Ba greater than those for DOTA and DTPA by ([4]; pH 7.4): 5-6 orders of magnitude; selectivity for Ba^2+ over Ca^2+ (ratio of pM values) ([4]; pH 7.4): 1.79 fold; selectivity for Ba^2+ over Sr^2+ (ratio of pM values) ([4]; pH 7.4): 1.17 fold; log Ka5 ([6]; I = 0.1M KCl (footnotes c, d)): (1.69)
O=C(O)c1cccc(CN2CCOCCOCCN(Cc3ccc4cccc(O)c4n3)CCOCCOCC2)n1 [macropaquin, 6-((16-((8-hydroxyquinolin-2-yl)methyl)-1,4,10,13-tetraoxa-7,16-diazacyclooctadecan-7-yl)methyl)picolinic acid] | 8.50 | 7.54 | 11.01 | 10.05 | 6.04 | 3.94 |  |  |  |  | 8.92(2) | 9.19(5) | 3.28(2) | 9.76(2) | 10.87 | 5.90(4) | MHL | 8.59(2) | 
O=S(=O)(O)c1ccc(O)c2nc(CN3CCOCCOCCN(Cc4ccc5c(S(=O)(=O)O)ccc(O)c5n4)CCOCCOCC3)ccc12 [macroquin-SO3, 2,2′-((1,4,10,13-tetraoxa-7,16-diazacyclooctadecane-7,16-diyl)bis(methylene))bis(8-hydroxyquinoline-5-sulfonic acid)] | 6.70 | 5.64 | 9.72 | 8.76 | 6.01 | 3.19 |  |  |  |  | 8.34(4) | 8.62(2) | 7.80(2) | 9.24(7) | 10.44 | 6.04(8) | MH2L | 8.60(4) | log KSrH2L ([1]; pH-potentiometry, 25° C.): 6.920(3)

— patent publication US11708283B2, “Metal-chelating compositions and their use in methods of removing or inhibiting barium scale” (CORNELL UNIVERSITY, priority 2018, dated 2023)
